Test results reported in patent US11440923B2, “Substituted macrocyclic indole derivatives” (Bayer Aktiengesellschaft, priority 2017, dated 2022).
Counter-ions that a name gives are not always drawn. Like-named read-outs stand apart in the source and are kept apart here.

Key:
AMO-1 cells = experiment: Antiproliferation assay AMO-1 (Assay 7); format: cell-based
Summary of the method: (§1)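 Cell proliferation was measured with CellTiter-Glo luminescence after 72 h compound exposure at 37 °C. A day 0 reference plate, read after overnight incubation, set the time-zero value. IC50s were calculated relative to day 0 (CI) and DMSO control (C0) values.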

BCL-2 = BCL-2 (Homo sapiens (Human), UniProt P10415); experiment: Protein-protein interaction assay BCL-2/Bad BH3 peptide (BCL-2 assay, TR-FRET); format: binding; settings: read-out: BCL-2 Assay IC50 (median)
Sequence of BCL-2 (P10415 1-211): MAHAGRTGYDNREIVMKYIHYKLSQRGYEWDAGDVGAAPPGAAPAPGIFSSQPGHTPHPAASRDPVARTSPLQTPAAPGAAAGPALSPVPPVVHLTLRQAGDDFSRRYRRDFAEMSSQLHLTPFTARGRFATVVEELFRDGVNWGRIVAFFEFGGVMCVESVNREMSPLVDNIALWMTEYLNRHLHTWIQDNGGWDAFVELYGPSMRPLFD
Summary of the method: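 His-tagged BCL-2 (aa 1-211, E. coli, 1 nM) preincubated 10 min at 22° C with compound (0.1 nM-20 μM), then 1 nM biotinylated Bad BH3 peptide with anti-His-Eu/streptavidin-XL665 added. Buffer: 50 mM Tris pH 7, 100 mM NaCl, 50 mM KF, 2 mM DTT. Incubated 1 h at 22° C, then overnight at 4° C. 665/620 ratio normalized; IC50 by 4-parameter fit.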

HMC-1-8 cells = experiment: Antiproliferation assay HMC-1-8 (Assay 7); format: cell-based
Summary of the method: as §1

[1] = 72 h, CellTiter-Glo, read-out: Antiproli HMC-1-8 IC50 median
[2] = read-out: Antiproli AMO-1 IC50 median; 72 h, CellTiter-Glo
[3] = read-out: Antiproli HMC-1-8 IC50 median; 72 h, CellTiter-Glo
[4] = 72 h, CellTiter-Glo; read-out: Antiproli AMO-1 IC50 median

SMILES | IC50 (BCL-2) [µM] | IC50 (AMO-1 cells; Homo sapiens, AMO1, 72 h, 72 h, CellTiter-Glo; read-out: Antiproli AMO-1 IC50 median) [µM] | IC50 (HMC-1-8 cells; [1]) [µM] | IC50 (AMO-1 cells; [2]) [µM] | IC50 (HMC-1-8 cells; [3]) [µM] | IC50 (AMO-1 cells; [4]) [µM] | IC50 (HMC-1-8 cells; 72 h, CellTiter-Glo; read-out: Antiproli HMC-1-8 IC50 median) [µM]
CCc1c2c(nn1C)C(Cc1ccccc1)OCCCCn1c(C(=O)O)c(CCCOc3cccc4cc(F)ccc34)c3ccc(Cl)c-2c31 (racemic) [Example 92, (rac)-(rac-15)-benzyl-4-chloro-3-ethyl-7-{3-[(6-fluoro-1-naphthyl)oxy]propyl}-2-methyl-2,10,11,12,13,15-hexahydropyrazolo[4′,3′:9,10][1,6]oxazacycloundecino[8,7,6-hi]indole-8-carboxylic Acid] | 12.2 | 1.36 | 7.07 |  |  |  | 
CCc1c2c(nn1C)C(CCN1CCN(C)CC1)OCCCCn1c(C(=O)O)c(CCCOc3cccc4cc(F)ccc34)c3ccc(Cl)c-2c31 (racemic) [Example 68, 4-chloro-3-ethyl-7-{3-[(6-fluoronaphthalen-1-yl)oxy]propyl}-2-methyl-(15-rac)-[2-(4-methylpiperazin-1-yl)ethyl]-2,10,11,12,13,15-hexahydropyrazolo[4′,3′:9,10][1,6]oxazacycloundecino[8,7,6-hi]indole-8-carboxylic Acid—N-ethylethanamine Salt (Mixture 1 of Stereoisomers)] | > 20 |  |  | 0.772 | 2.62 |  | 

The next lines start with results.

IC50 (BCL-2) [µM] | SMILES | IC50 (AMO-1 cells; Homo sapiens, AMO1, 72 h, 72 h, CellTiter-Glo; read-out: Antiproli AMO-1 IC50 median) [µM] | IC50 (HMC-1-8 cells; [1]) [µM] | IC50 (AMO-1 cells; [2]) [µM] | IC50 (HMC-1-8 cells; [3]) [µM] | IC50 (AMO-1 cells; [4]) [µM] | IC50 (HMC-1-8 cells; 72 h, CellTiter-Glo; read-out: Antiproli HMC-1-8 IC50 median) [µM]
> 20 | CCc1c2c(nn1C)C(CC(C)(C)O)OCCCCn1c(C(=O)O)c(CCCOc3cccc4cc(F)ccc34)c3ccc(Cl)c-2c31 (single isomer, unassigned; enantiomer 21) [Example 54, (−)-4-chloro-3-ethyl-7-{3-[(6-fluoronaphthalen-1-yl)oxy]propyl}-15-(2-hydroxy-2-methylpropyl)-2-methyl-2,10,11,12,13,15-hexahydropyrazolo[4′,3′:9,10][1,6]oxazacycloundecino[8,7,6-hi]indole-8-carboxylic Acid—N-ethylethanamine Salt (Enantiomer 21] |  |  | 27.8 | 20.2 |  | 
> 20 | Cc1c2c(nn1C)C(CCN1CCOCC1)OCCCCn1c(C(=O)O)c(CCCOc3cccc4ccccc34)c3ccc(Cl)c-2c31 (single isomer, unassigned; enantiomer 1) [Example 14, 4-chloro-2,3-dimethyl-15-[2-(morpholin-4-yl)ethyl]-7-{3-[(naphthalen-1-yl)oxy]propyl}-2,10,11,12,13,15-hexahydropyrazolo[4′,3′:9,10][1,6]oxazacycloundecino[8,7,6-hi]indole-8-carboxylic Acid (Enantiomer 1)] |  | 0.381 |  |  | 0.0431 | 
> 20 | CCc1c2c(nn1C)C(CCO)OCCCCn1c(C(=O)O)c(CCCOc3cccc4cc(F)ccc34)c3ccc(Cl)c-2c31 (single isomer, unassigned; enantiomer 1) [Example 45, (+)-4-chloro-3-ethyl-7-{3-[(6-fluoronaphthalen-1-yl)oxy]propyl}-15-(2-hydroxyethyl)-2-methyl-2,10,11,12,13,15-hexahydropyrazolo[4′,3′:9,10][1,6]oxazacycloundecino[8,7,6-hi]indole-8-carboxylic Acid (Enantiomer 1)] |  |  |  |  | 0.185 | 2.14
